Experimental data: patent US20250302799A1, “PHARMACEUTICAL COMPOSITION CONTAINING FRAXETIN FOR PREVENTION OR TREATMENT OF ENDOMETRIOSIS” (Research & Business Foundation Sungkyunkwan University, priority 2024, published 2025)

Legend:
Assay type in all cases: cell-based, human
End1/E6E7 cells [1] = test: BrdU cell proliferation assay; details: End1/E6E7, 48 hours
Experimental: (§1) To examine the effects of fraxetin on cell proliferation, the inventors performed a BrdU cell proliferation assay.
(§2) First, 5×10^3 cells of VK2/E6E7, End1/E6E7, and T-HESC were each distributed in 100 μL of medium in 96-well plates.
(§3) Fraxetin was then administered in a dose-dependent manner (0μM, 5 μM, 10 μM, 20 uM, 50 μM, 100 uM) and cultured for 48 hours, followed by the BrdU assay using a BrdU kit (Cat No: 1167229001, Roche) according to the manufacturer's instructions.
(§4) After 48 hours of incubation, 10 μM BrdU (Bromodeoxyuridine) was added to each well and incubated at 37° C. in a 5% CO2 incubator for 2 hours. The cells were then fixed, reacted with anti-BrdU-POD solution at room temperature for 90 minutes, and washed three times. Finally, 100 μL of 3, 3′, 5, 5′-tetramethylbenzidine substrate was added, and absorbance was measured at wavelengths of 370 nm and 492 nm to analyze cell proliferation.

VK2/E6E7 cells [2] = test: BrdU cell proliferation assay; details: VK2/E6E7, 48 hours
Experimental: as §1, §2, §3, §4

End1/E6E7 cells [3] = test: Mitochondrial membrane potential by JC-1 staining; details: End1/E6E7, with tiRNA^HisGTG inhibitor
Experimental: To examine changes in mitochondrial membrane potential (MMP) in endometrial cells induced by fraxetin, the inventors used a mitochondria staining kit (Cat no: CS0390, Sigma-Aldrich) to measure MMP.
In brief, End1/E6E7 and […] endometrial cell lines were cultured in 6-well plates, treated with fraxetin in a dose-dependent manner (0 μM, 5 μM, 10 μM, 20 μM, 50 μM, 100 μM), and incubated at 37° C. in a 5% CO2 incubator for 48 hours. Afterward, the cells were detached using trypsin, centrifuged to obtain cell pellets, resuspended in JC-1 staining solution, and incubated at 37° C. in a 5% CO2 incubator for 20 minutes. The stained cells were centrifuged again, washed with 1X JC-1 staining buffer, and analyzed using flow cytometry to assess changes in mitochondrial membrane potential.

VK2/E6E7 cells [4] = test: Mitochondrial membrane potential by JC-1 staining; details: VK2/E6E7, with tiRNA^HisGTG inhibitor
End1/E6E7 cells [5] = test: Apoptosis by Annexin V and propidium iodide staining; details: End1/E6E7, with tiRNA^HisGTG inhibitor
Experimental: (§5) To assess the apoptosis-inducing effect of fraxetin in endometrial cells, the inventors used a FITC Annexin V Apoptosis Detection Kit I (BD Sciences).
(§6) First, VK2/E6E7 and End1/E6E7 cells were cultured in 6-well plates, treated with fraxetin in a dose-dependent manner (0 μM, […], 10 μM, 20 µM, 50 μM, 100 μM), and incubated for 48 hours at 37° C. in a 5% CO2 incubator. The cells were then detached using trypsin, washed with PBS, and mixed slowly with 1 mL of 1X binding buffer. After centrifugation, the cell pellet was resuspended in 200 μL of 1X binding buffer. The suspension (100 μL) was transferred to a 1.5 mL brown tube, and 5 μL of Annexin V and PI (propidium iodide) were added, followed by staining at room temperature for 15 minutes. After adding 400 μL of 1X binding buffer, the stained solution was transferred to a 5 mL FACS tube, and the number of apoptotic cells was measured by analyzing fluorescence intensity using flow cytometry.

VK2/E6E7 cells [6] = test: as above; details: VK2/E6E7, with tiRNA^HisGTG inhibitor
Experimental: as §5, §6

End1/E6E7 cells [7] = test: tiRNA expression by real-time PCR; details: End1/E6E7, inhibitor 40 nM transfected
Experimental: (§7) To confirm the expression of tiRNA (tRNA-derived stress-induced RNAs) associated with the development of endometriosis, the inventors conducted real-time PCR.
(§8) First, information on candidate tiRNA sequences and mature tRNA sources was obtained from MINTbase (https://cm.jefferson.edu/MINTbase/). miRNA CDNA synthesis was performed using a cDNA kit (Agilent Technologies) to confirm tiRNA expression, with U6 snRNA used for normalization. For transfection of the tiRNA^His GTG inhibitor (5′-AACCGAGAGUACUAACCACUAUACGAUCACCGC-3′) (40 nM), Lipofectamine 2000 was used in Opti-MEM.

VK2/E6E7 cells [8] = test: tiRNA expression by real-time PCR; details: VK2/E6E7, inhibitor 40 nM transfected
Experimental: as §7, §8

End1/E6E7 cells [9] = test: Western blot analysis of protein expression and phosphorylation
Experimental: To analyze protein expression related to the development of endometriosis following fraxetin treatment, the inventors conducted western blot analysis.
Briefly, endometrial cells were treated with fraxetin in a dose-dependent manner or in combination with signaling pathway inhibitors. Total proteins were extracted from the treated cells, and protein quantification was performed using the Bradford protein assay (Bio-Rad, Hercules, CA, USA). The extracted proteins were then denatured at 95° C. for 5 minutes and subjected to electrophoresis on a 10% SDS/PAGE gel before being transferred to a nitrocellulose membrane. The membrane was subsequently incubated with primary and secondary antibodies, and target protein expression was analyzed using chemiluminescence detection reagents (Supersignal West Pico, Pierce, Rockford, IL, USA) with the ChemiDoc EQ system and Quantity One software (Bio-Rad).

End1/E6E7 cells [10] = test: ROS generation by DCFH-DA flow cytometry
Experimental: (§9) To assess the inhibitory effect of fraxetin on ROS generation in endometrial cells, the inventors used flow cytometry to measure ROS levels. In brief, endometriosis cells were stained with DCFH-DA (final concentration 10 μM) for 30 minutes and treated with 50 μM fraxetin in experimental groups, with or without 2 mM N-acetylcysteine (NAC; Cat No. A0737, Sigma), in a 37° C. incubator. Afterward, the cells were washed with PBS, and ROS levels were detected by measuring fluorescence DCF via flow cytometry.

VK2/E6E7 cells [11] = test: ROS generation by DCFH-DA flow cytometry
Experimental: as §9

End1/E6E7 cells [12] = test: Cell viability with signaling pathway inhibitors alone or combined with fraxetin; details: wortmannin 1 μM, U0126 20 μM
Experimental: (§10) The AKT inhibitor wortmannin (1 μM), ERK1/2 inhibitor U0126 (20 μM), and JNK inhibitor SP600125 (20 μM) were used.

VK2/E6E7 cells [13] = test: as above; details: wortmannin 1 μM, U0126 20 μM
Experimental: as §10

tiRNA^HisGTG inhibitor: tiRNA^His GTG inhibitor (5′-AACCGAGAGUACUAACCACUAUACGAUCACCGC-3′), 40 nM, transfected with Lipofectamine 2000 (AACCGAGAGUACUAACCACUAUACGAUCACCGC; chemistry not given here) [reference compound]
cell proliferation, sequential treatment with fraxetin (End1/E6E7 cells [1]): decreased
cell proliferation, sequential treatment with fraxetin (VK2/E6E7 cells [2]): decreased
fraxetin-induced MMP loss (End1/E6E7 cells [3]): significantly mitigated
fraxetin-induced MMP loss (VK2/E6E7 cells [4]): significantly mitigated
fraxetin-induced apoptosis (End1/E6E7 cells [5]): inhibited
fraxetin-induced apoptosis (VK2/E6E7 cells [6]): inhibited
tiRNA^HisGTG mRNA expression (End1/E6E7 cells [7]): decreased
tiRNA^HisGTG mRNA expression (VK2/E6E7 cells [8]): decreased

COC[C@H]1OC(=O)c2coc3c2[C@@]1(C)C1=C(C3=O)[C@@H]2CCC(=O)[C@@]2(C)C[C@H]1OC(C)=O [wortmannin, reference compound]
JNK phosphorylation (End1/E6E7 cells [9]; End1/E6E7, wortmannin 1 μM): no significant effect

C[C@]12CCC3=C4CCC(=O)C=C4CC[C@H]3[C@@H]1CC[C@@]2(O)CC#N [dienogest, reference compound]
relative ROS generation (End1/E6E7 cells [10]; End1/E6E7, Example 7 comparison fraxetin vs dienogest): did not show significant changes
relative ROS generation (VK2/E6E7 cells [11]; VK2/E6E7, Example 7 comparison fraxetin vs dienogest): did not show significant changes

CC(=O)N[C@@H](CS)C(=O)O [NAC, N-acetylcysteine, reference compound]
fraxetin-induced increase of ROS generation under co-treatment (End1/E6E7 cells [10]; End1/E6E7, 2 mM NAC): mitigated
fraxetin-induced increase of ROS generation under co-treatment (VK2/E6E7 cells [11]; VK2/E6E7, 2 mM NAC): mitigated

N#CC(=C(/N)Sc1ccccc1N)/C(C#N)=C(\N)Sc1ccccc1N [U0126]
S6 phosphorylation, combined with fraxetin compared to fraxetin alone (End1/E6E7 cells [9]; End1/E6E7, inhibitor 20 μM): further downregulated
cell viability, combined treatment with fraxetin compared to inhibitor alone (End1/E6E7 cells [12]): marked decrease
cell viability, combined treatment with fraxetin compared to inhibitor alone (VK2/E6E7 cells [13]): marked decrease
